Measurements taken from PMC9131871, “Impact of Micropolymorphism Outside the Peptide Binding Groove in the Clinically Relevant Allele HLA-C*14 on T Cell Responses in HIV-1 Infection” (Journal of Virology, 2022).

The sequences below were run against HLA-C*14:02 (Homo sapiens, UniProt P10321, A176E/A330V/A35S/A97T/C350S/D114A/D33S/L171W/L180R/L218V/M285V/M309V/M331V/P208H/Q277E/Q291P/R121W/R243W/S123F/S297R/S48A/T329A/T363A/V319A) (assay: LC-MS/MS identification of HLA-bound HIV-1 peptides from NL4-3-infected .221-C1402 cells). Conditions: HIV-1 NL4-3-infected .221-C1402 cells, W6/32 immunoprecipitation, two independent replicate experiments.
Type: binding
Parameters: key: ●: Closed circles indicate the peptide which was identified in HLA-C*1402 or/and -C*1403 expressing cells
Procedure: 721.221 cells expressing CD4 and HLA-C*14:02 (.221-C1402) or HLA-C*14:03 (.221-C1403) were infected with the laboratory-adapted NL4-3 HIV-1 strain. HLA-peptide complexes were isolated from cell lysates by immunoprecipitation with the anti-HLA class I antibody W6/32; then, peptides were eluted, fractionated by high-performance liquid chromatography (HPLC), and finally analyzed by LC-MS/MS. Two independent replicate experiments were performed, in which a total of 7,970 and 8,447 unique 8- to 13-mer peptide sequences were identified from .221-C1402 and .221-C1403 cells, respectively (Fig. 1A). Of these peptides, 6,163 were identified in both the C*14:02- and C*14:03-bound peptide data sets, while other peptides were detected in the acid-eluted fraction from only a single allele. […] These motifs are consistent with the HLA-C*1402/03 peptide motifs previously estimated using reported epitopes ([29]).
.221-C1402 and .221-C1403 cells were infected with HIV-1 NL4-3 in a low volume of RPMI 1640 medium (Thermo Fisher) containing 10% fetal bovine serum (FBS), 2 mM L-glutamine, 100 U/mL penicillin, 100 μg/mL streptomycin, and 10 mM HEPES (R10). Fifty microliters of NL4-3 stock virus (Reverse transcriptase activity (RT) value = 4 × 10^2 ng/mL) was added to 8 × 10^6 .221-C1402 cells or .221-C1403, and the cells were then incubated for 1.5 h at 37°C, after which 20 mL of R10 was added and the cells were cultured overnight. At day 1 postinfection, a further 20 mL R10 was added, and cells were split (1:2) on day 2. On day 3 postinfection, the proportion of cells infected with HIV-1 was determined by intracellular p24 staining, as previously described ([46]). Infected flasks were then harvested for immunoprecipitation of HLA-peptide complexes.
.221-C1402 cells or .221-C1403 cells infected with NL4-3 (1.5 × 10^8 to 2 × 10^8 cells) were harvested, washed in phosphate-buffered saline (PBS), and lysed in 5 mL of lysis buffer (1% IGEPAL 630, 300 mM NaCl, 100 mM Tris [pH 8.0], plus protease inhibitors) at 4°C for 45 min. Two centrifugation steps (2,000 × g for 10 min followed by 20,000 × g for 30 min at 4°C) were next employed to clear the lysates of cell debris prior to overnight capture of HLA-peptide complexes on W6/32-coated protein A‐Sepharose beads. W6/32-bound HLA-peptide complexes were sequentially washed with 10 to 20 mL of wash buffer 1 (0.005% IGEPAL, 50 mM Tris [pH 8.0], 150 mM NaCl, 5 mM EDTA), wash buffer 2 (50 mM Tris [pH 8.0], 150 mM NaCl), wash buffer 3 (50 mM Tris [pH 8.0], 400 mM NaCl), and finally wash buffer 4 (50 mM Tris [pH 8.0]) under gravity flow in Econo-Column glass chromatography columns (Bio-Rad). Peptide-HLA complexes were eluted from the beads with 5 mL of 10% acetic acid and, after drying under vacuum, were loaded onto a 4.6- by 50-mm ProSwift RP-1S column (Thermo Fisher Scientific) and eluted from an Ultimate 3000 HPLC system (Thermo Scientific) using a 500-μL/min flow rate over 10 min from 2% to 34% buffer B (0.1% trifluoroacetic acid [TFA] in acetonitrile) in buffer A (0.1% TFA in water). Alternate fractions were pooled to give two final peptide fractions that were dried for LC-MS/MS analysis.
Each HPLC-eluted sample was resuspended in 20 μL loading buffer, and 9 μL of it was injected onto a 3-μm-particle-size 0.075-mm by 150-mm Acclaim PepMap RSLC C18 column and further loaded onto a 2-μm-particle-size, 75-μm by 50-cm Acclaim PepMap RSLC C18 column using an Ultimate 3000 nUPLC system (Thermo Scientific). A linear gradient of 3 to 25% buffer B (0.1% formic acid, 5% dimethyl sulfoxide [DMSO] in acetonitrile) in buffer A (0.1% formic acid, 5% DMSO in water) was applied over 1 h to elute peptides from the column (flow rate of […]). Peptides were introduced, using an Easy-Spray source at 2,000 V at 40°C, into a Fusion Lumos mass spectrometer (Thermo Scientific). The ion transfer tube temperature was set to 305°C. […]

Sequence | C1402: peptide identified by LC-MS/MS in HLA-I eluate
AFHHVAREL [Nef AL9] | ●
AFSPEVIPM [Gag AM9] | ●
FLGAAGSTM [Env FM9, HIV-1 NL4-3 Env 522–530 peptide …] | ●
IYHTQGYF [Nef IF8] | ●
KYHSNWRAM [Pol KM9] | ●
LYNTIAVLY [Gag LY9] | ●
RFDSRLAF [Nef RF8, HIV-1 NL4-3 Nef 184–191 peptide RFDSRLAF] | ●
VYYDPSKDL [Pol VYL9, HIV-1 NL4-3 Pol 472–480 peptide …] | ●
YFPDWQNYT [Nef YT9] | ●
